Tests used:
[1] = target: T1, PPARγ2 (Homo sapiens, UniProt P37231); assay: Transient transfection, PPARγ2 reporter in CV1 cells; format: cell-based; design: a construct containing the entire cDNA of the human PPARγ2 (hPPARγ2); expressed in transfected cells; host or cells: Hep G2, RK13 or CV1 cells; conditions: simian renal cells CV1
T1 sequence (P37231 1-505): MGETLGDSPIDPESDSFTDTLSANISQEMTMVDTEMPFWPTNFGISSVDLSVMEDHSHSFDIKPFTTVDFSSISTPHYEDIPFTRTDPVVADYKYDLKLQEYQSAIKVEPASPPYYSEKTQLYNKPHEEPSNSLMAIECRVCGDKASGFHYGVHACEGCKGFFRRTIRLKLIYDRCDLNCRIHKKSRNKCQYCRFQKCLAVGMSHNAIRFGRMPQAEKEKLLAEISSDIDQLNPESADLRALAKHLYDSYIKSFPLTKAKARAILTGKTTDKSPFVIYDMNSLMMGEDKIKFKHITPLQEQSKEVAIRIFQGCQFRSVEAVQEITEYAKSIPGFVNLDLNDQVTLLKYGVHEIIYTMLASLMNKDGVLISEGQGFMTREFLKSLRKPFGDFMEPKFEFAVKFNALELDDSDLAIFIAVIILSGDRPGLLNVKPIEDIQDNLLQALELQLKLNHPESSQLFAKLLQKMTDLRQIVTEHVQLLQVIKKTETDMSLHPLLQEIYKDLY
Procedure: RK13 cells (A and D), CV1 cells (B) or Hep G2 cells (C) were co-transfected with an expression vector for PPARγ2 (0.1 μg/well), pGL3-(Jwt)3TKLuc reported construct (0.5 μg/well), and pCMV-βGal (0.5 μg/well), as a control of transfection efficiency (0.5 μg/well). They were then grown during 24 h in the presence or absence of indicated compound. Activation is expressed as relative luciferase activity/β ? galactosidase activity. Each point was performed in triplicate, and each figure i ? representative of four independent experiments.
The CV1, RK-13, and Hep G2 cell lines were obtained from ATCC (Rockville, Md.). Cells were maintained in Dulbecco's modified Eagle's minimal essential medium (DMEM) supplemented with 10% fetal calf serum (FCS), L-glutamine, and antibiotics. Transfections with chloramphenicol acetyltransferase (CAT) or luciferase (luc.) reporter constructs were carried out exactly as described previously (Schoonjans et al., 1996). The pGL3-(Jwt)3TKLuc and the pGL3-(Jwt)3TKCAT reporter constructs contain both three tandem repeats of the J site of the apolipoprotein A-II promoter cloned upstream of the herpes simplex virus thymidine kinase (TK) promoter and the luciferase or the CAT reporter genes respectively (Vu-Dac et al., 1995). […]

[2] = target: PPARγ DE/p300Nt-GST (Homo sapiens, UniProt P37231)
Sequence of PPARγ DE/p300Nt-GST (Q09472 2-516 partner limits assumed, one chain of several): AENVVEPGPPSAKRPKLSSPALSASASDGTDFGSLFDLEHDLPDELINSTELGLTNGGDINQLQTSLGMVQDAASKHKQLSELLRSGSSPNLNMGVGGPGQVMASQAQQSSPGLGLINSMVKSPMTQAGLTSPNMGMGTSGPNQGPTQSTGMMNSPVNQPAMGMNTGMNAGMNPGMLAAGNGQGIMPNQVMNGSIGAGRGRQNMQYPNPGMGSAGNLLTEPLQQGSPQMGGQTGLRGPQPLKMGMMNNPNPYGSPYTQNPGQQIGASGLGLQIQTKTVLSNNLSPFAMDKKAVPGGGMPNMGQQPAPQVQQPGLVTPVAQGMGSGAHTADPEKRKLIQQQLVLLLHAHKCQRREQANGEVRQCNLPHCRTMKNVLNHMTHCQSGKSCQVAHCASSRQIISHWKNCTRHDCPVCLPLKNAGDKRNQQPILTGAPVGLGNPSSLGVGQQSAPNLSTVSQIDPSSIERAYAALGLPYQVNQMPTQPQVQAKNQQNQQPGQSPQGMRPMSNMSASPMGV
Source text: The beads were then washed and the samples separated on SDS-PAGE and blotted. The blot was developed with anti-histidine antibodies.
The p300Nt-GST, fusion protein was generated by cloning the N-terminal part of the p300 protein (a.a. 2 to 516) downstream of the glutathione-S-transferase (GST) protein in the pGex-T1 vector (Pharmacia, Orsay, France). The fusion proteins were then expressed in Escherichia coli and purified on a glutathione affinity matrix (Pharmacia). Human PPARγ (aa. 203 to 477 of PPARγ) was subcloned into the pET15b (Novagen, Madison, Wis.) expression vector. The his-tagPPARγ2DE203-477 proteins were produced as follow. The protein was purified using a metal chelate affinity column with an affinity column Co^2+ coupled agarose (High Trap chelatin, Pharmacia). The protein was eluted with 20 mM Tris-HCl, 500 M NaCl, 130 mM imidazole and 1-2 propanediol 2.5% (pH 8.5). A second purification step was made by gel filtration (Superdex 200 16/60, Pharmacia). The protein was eluted with 20 mM Tris-HCl, 100 mM NaCl, 5 mM DTT and 1-2 propanediol 2,5% (pH 8.5).

## CC(C)CC(NC(=O)OCC1c2ccccc2-c2ccccc21)C(=O)O [F-L-Leu, N-(9-fluroroenylmethyloxycarbonyl)-L-Leucine]
[1]
  concentration required for optimal PPARγ activation: 10^−5 M
[2]; p300 pull-down
  potency relative to rosiglitazone (fold lower): 2- to 3 fold
[2]; vs DMSO, rosiglitazone 10^−4 M, F-L-Leu 10^−3 M
  formation of PPARγ DE/p300Nt-GST complexes: effectively induced
